Patent US9862740B2, “Process for preparing novel forms of tiacumicin B” (Olon S.P.A., priority 2014, dated 2018)

Assay: Particle size distribution (Psd comparison) of Tiacumicin B crystals
Format: physicochemical
Details: in µm (unit assumed)
Experimental: 3000 g of pure Tiacumicin B were dissolved in about 40 L of CH3OH. 80 L of (C2H5)2O were added under stirring to the solution at the room temperature. The solution was then heated at 39° C. and the mixer speed was set at 20 rpm; 160 L of n-Pentane were added in about 30 minutes. The mixer speed was then set at 15 rpm and the solution was cooled at 5° C. in about 5 hours. The suspension was then filtered and product dried under vacuum. The crystal obtained has a not well defined crystal shape and a high amount of fine that make the product difficult to formulate. […] of pure Tiacumicin B were dissolved in 33 mL of CH3OH. 66 mL of (C2H5)2O were added under stirring to the solution at the room temperature. The solution was then heated at 39° C. and the mixer speed was set at 400 rpm; 132 mL of n-Pentane were added in about 30 minutes. The mixer speed was then set at 200 rpm and the solution was cooled at 5° C. in about 60 minutes. The suspension was heated at 30° C. and maintained at this temperature for about 30 minutes; then the suspension was cooled at 5° C. in about 60 minutes. The suspension was heated at 25° C. and maintained at this temperature for about 30 minutes; then the suspension was cooled at 5° C. in about 60 minutes. The suspension was heated at 15° C. and maintained at this temperature for about 30 minutes; then the suspension was cooled at 5° C. in about 60 minutes and maintained in this condition over night. The crystals obtained has a different more homogeneous and regular crystal habit respect to that obtained with the standard process and an improved psd (see FIGS. 3 and 4 and Table). 2000 g of pure Tiacumicin B were dissolved in 26 L of CH3OH. 52 L of (C2H5)2O were added under stirring to the solution at the room temperature. The solution was then heated at 39° C. and the mixer speed was set at 20 rpm; 130 L of n-Pentane were added in about 30 minutes. The mixer speed was then set at 8 rpm and the solution was cooled at 35° C. and maintained at this temperature for about 60 minutes. The suspension was cooled at 30° C. and maintained at this temperature for about 60 minutes. Then the suspension was cooled at 25° C. and maintained at this temperature for about 30 minutes. Then the suspension was cooled at 20° C. and maintained at this temperature for about 30 minutes. Then the suspension was cooled at 15° C. and maintained at this temperature for about 30 minutes. Then the suspension was cooled at 10° C. and maintained at this temperature for about 30 minutes. Then the suspension was cooled at 5° C. and maintained at this temperature for about 30 minutes. The suspension was heated at 30° C. and maintained at this temperature for about 30 minutes; then the suspension was cooled at 5° C. in about 60 minutes. The suspension was heated at 25° C. and maintained at this temperature for about 30 minutes; then the suspension was cooled at 5° C. in about 60 minutes. The suspension was heated at 15° C. and maintained at this temperature for about 30 minutes; then the suspension was cooled at 5° C. in about 60 minutes and maintained in this condition over night. The crystals obtained has a different more homogeneous and regular crystal habit respect to that obtained with the standard process and an improved psd (see FIGS. 3 and 4 and Table).

| D(0.1) | D(0.5) | D(0.9) | SMILES |
| --- | --- | --- | --- |
| 7.04 | 23.98 | 55.27 | CCc1c(Cl)c(O)c(Cl)c(O)c1C(=O)O[C@H]1[C@H](O)[C@H](OC)[C@H](OC/C2=C\C=C\C[C@H](O)/C(C)=C/[C@H](CC)[C@@H](O[C@@H]3OC(C)(C)[C@@H](OC(=O)C(C)C)[C@H](O)[C@@H]3O)/C(C)=C/C(C)=C/C[C@@H]([C@@H](C)O)OC2=O)O[C@@H]1C [Example 3, Tiacumicin B] |
| 3.90 | 11.36 | 27.35 | CCc1c(Cl)c(O)c(Cl)c(O)c1C(=O)O[C@H]1[C@H](O)[C@H](OC)[C@H](OC/C2=C\C=C\C[C@H](O)/C(C)=C/[C@H](CC)[C@@H](O[C@@H]3OC(C)(C)[C@@H](OC(=O)C(C)C)[C@H](O)[C@@H]3O)/C(C)=C/C(C)=C/C[C@@H]([C@@H](C)O)OC2=O)O[C@@H]1C [Example 1, Tiacumicin B] |
| 10.82 | 35.94 | 73.79 | CCc1c(Cl)c(O)c(Cl)c(O)c1C(=O)O[C@H]1[C@H](O)[C@H](OC)[C@H](OC/C2=C\C=C\C[C@H](O)/C(C)=C/[C@H](CC)[C@@H](O[C@@H]3OC(C)(C)[C@@H](OC(=O)C(C)C)[C@H](O)[C@@H]3O)/C(C)=C/C(C)=C/C[C@@H]([C@@H](C)O)OC2=O)O[C@@H]1C [Example 2, Tiacumicin B] |
